{
  "source": "patent US9676820B2",
  "about": "“Method for inhibiting proliferation of high LIX1L-expressing tumor cell, and tumor cell proliferation-inhibiting peptide” (National University Corporation Hamamatsu University School …, priority 2013, dated 2017)",
  "key": {"HL-60 strain": {"tested_on": "HL-60 strain", "assay": "Viable cell counts (Trypan blue staining), HL-60 strain", "type": "cell-based", "settings": "5 μM peptide, vs untreated", "description": "Specifically, cells plated such that the density thereof became 1×10^4 cells/3.5 cm well for one plate (6 wells/plate) for each cell strain were cultured for one night in a culture solution having the same composition as those of the culture solutions described in the reference examples. After culturing of 1 well out of the 6 wells was completed, Trypan blue staining was performed on the 1 well, and viable cell counts were counted. The remaining 5 wells were cultured after exchanging the culture solution with a liquid mixture of a Lipofectamine (registered trademark) reagent (12.5 μL/well) and a culture solution (2 mL/well) of which the shRNA concentration became 2.5 μg/well. Then, Trypan blue staining was performed on 1 well 24 hours after the exchange of a culture medium, 1 well 48 hours after the exchange of a culture medium, and the remaining 1 well 72 hours after the exchange of a culture medium, and the viable cell counts were counted. As a control, the viable cell counts were measured (untreated) by performing the culturing similarly to the above except that a culture medium was exchanged with a culture solution to which no shRNA was added.\nSpecifically, the viable cell counts were measured after culturing the cells similarly to Example 1 except that a 5 μM culture solution containing a control peptide, a peptide 1, or a peptide 2 was used instead of the culture solution (2 mL/well) of which the shRNA concentration was 2.5 μg/well. The viable cell counts were measured (untreated) by performing the culturing similarly to Example 1 using a culture solution containing no peptide 2, as a control."}, "136th tyrosine of LIX1L": {"target": "T1, 136th tyrosine of LIX1L (Homo sapiens, UniProt Q8IVB5)", "T1 construct": "expressed in transfected cells", "T1 sequence (Q8IVB5 with tags, fused parts or gaps)": "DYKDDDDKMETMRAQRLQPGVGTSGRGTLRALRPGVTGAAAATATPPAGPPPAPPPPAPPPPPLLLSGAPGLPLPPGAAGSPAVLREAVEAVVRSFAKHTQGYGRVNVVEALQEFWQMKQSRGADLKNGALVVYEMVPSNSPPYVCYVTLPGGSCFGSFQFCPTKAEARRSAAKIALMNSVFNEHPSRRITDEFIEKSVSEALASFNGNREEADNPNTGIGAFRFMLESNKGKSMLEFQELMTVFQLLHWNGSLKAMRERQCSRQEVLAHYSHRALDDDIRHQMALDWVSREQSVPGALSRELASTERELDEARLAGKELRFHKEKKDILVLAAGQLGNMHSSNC", "assay": "Tyrosine phosphorylation of LIX1L by immunoprecipitation and Western blotting in 293 FLG/LIX1L cells", "type": "cell-based", "settings": "cultured 14 days with peptide", "description": "First, a cell strain (293 FLG) in which only FLAG was forcibly expressed, a cell strain (293 FLG/LIX1L) in which a LIX1L protein with a FLAG tag was forcibly expressed, and a cell strain (293 FLG/LIX1L/PY136) in which a LIX1L protein with a FLAG tag for adding a peptide thereto was forcibly expressed were prepared through the same method as Reference Example 5, and were cultured and proliferated.\nNext, the 293 FLG/LIX1L/PY136 cells were cultured for 14 days in a culture solution containing a peptide 1 through the same method as that in Example 3. The 293 FLG cells and the 293 FLG/LIX1L cells were cultured for 14 days in the same manner as above using a culture solution containing no peptide 1.\nNext, the 293 FLG cells, the 293 FLG/LIX1L cells, and the 293 FLG/LIX1L/PY136 cells were respectively cultured in 10% FCS-containing DMEM culture media to which Hygromycin B at […] was added, for 14 days. Then, the cultured cells were separated into nuclear fractions and cytoplasm fractions using Nuclear/Cytosol Fractionation Kit (manufactured by BioVison, Inc.). Immunoprecipitation was performed on both the obtained fractions using an anti-FLAG antibody (manufactured by Sigma-Aldorich Co. LLC.) and an agarose-binding protein A (manufactured by Sigma-Aldorich Co. LLC.), protein separation was performed thereon through 12% SDS-PAGE, and the fractions were transferred to a film. […]"}},
  "data": [
    {"molecule": "CC(C)[C@H](NC(=O)[C@H](Cc1ccc(O)cc1)NC(=O)[C@H](CS)NC(=O)[C@@H](NC(=O)[C@H](Cc1ccc(O)cc1)NC(=O)[C@@H]1CCCN1C(=O)[C@@H]1CCCN1C(=O)[C@H](CO)NC(=O)[C@H](CC(N)=O)NC(=O)[C@H](CO)NC(=O)[C@@H]1CCCN1C(=O)CCCCCNC(=O)[C@H](CCCNC(=N)N)NC(=O)[C@H](CCCNC(=N)N)NC(=O)[C@H](CCCNC(=N)N)NC(=O)[C@H](CCC(N)=O)NC(=O)[C@H](CCCNC(=N)N)NC(=O)[C@H](CCCNC(=N)N)NC(=O)[C@H](CCCCN)NC(=O)[C@H](CCCCN)NC(=O)[C@H](CCCNC(=N)N)NC(=O)CNC(=O)[C@@H](N)Cc1ccc(O)cc1)C(C)C)C(N)=O", "note": "[peptide 1, YGRKKRRQRRR-X-PSNSPPYVCYV-NH2]", "values": [
      {"measurement": "viable cell counts", "setting": "HL-60 strain; after 72 hours", "value": "very small"},
      {"measurement": "viable cell counts", "setting": "HL-60 strain; after culturing for 24 hours", "value": "decreased"},
      {"measurement": "phosphorylation of the 136th tyrosine of LIX1L", "setting": "136th tyrosine of LIX1L; cytoplasm fraction of 293 FLG/LIX1L/PY136 cell", "value": "significantly inhibited"},
      {"measurement": "phosphorylation of the 136th tyrosine of LIX1L", "setting": "136th tyrosine of LIX1L; nuclear fraction of 293 FLG/LIX1L/PY136 cell", "value": "slightly inhibited"}
    ]}
  ]
}
